Data: the NIST ThermoML archive (doi:10.1021/acs.jced.8b00236)

Experiment: mn = molality of the nth substance listed, in mol/kg
Conditions: 75 kPa, Liquid; for viscosity: Capillary tube (Ostwald / Ubbelohde) method; for speed of sound: Frequency=3 MHz, Single path-length method; for mass density: Vibrating tube method

NCCCC(=O)O [4-aminobutanoic acid] + O
Conditions	mass density [kg/m3]	speed of sound [m/s]	viscosity [mPa·s]
288.15 K, m1 = 0.1389	1003.34	1478.5	1.204
288.15 K, m1 = 0.2788	1007.5	1490.3	1.252
288.15 K, m1 = 0.4194	1011.57	1501.8	1.313
288.15 K, m1 = 0.56	1015.51	1513	1.376
288.15 K, m1 = 0.702	1019.39	1523.9	1.452
288.15 K, m1 = 0.8449	1023.19	1534.5	1.515
288.15 K, m1 = 0.9892	1026.91	1544.8	1.591
288.15 K, m1 = 1.132	1030.5	1554.5	1.672
293.15 K, m1 = 0.1389	1002.43	1494.4	1.054
293.15 K, m1 = 0.2788	1006.57	1506	1.098
293.15 K, m1 = 0.4194	1010.61	1517.4	1.148
293.15 K, m1 = 0.56	1014.53	1528.5	1.206
293.15 K, m1 = 0.702	1018.37	1539.6	1.265
293.15 K, m1 = 0.8449	1022.12	1550.5	1.325
293.15 K, m1 = 0.9892	1025.79	1561.2	1.393
293.15 K, m1 = 1.132	1029.32	1571.5	1.464
298.15 K, m1 = 0.1389	1001.25	1508.1	0.936
298.15 K, m1 = 0.2788	1005.35	1519.3	0.975
298.15 K, m1 = 0.4194	1009.36	1530.3	1.022
298.15 K, m1 = 0.56	1013.22	1541.2	1.068
298.15 K, m1 = 0.702	1017.01	1551.9	1.125
298.15 K, m1 = 0.8449	1020.7	1562.2	1.178
298.15 K, m1 = 0.9892	1024.31	1572.5	1.243
298.15 K, m1 = 1.132	1027.75	1582.3	1.307
303.15 K, m1 = 0.1389	999.81	1520.1	0.835
303.15 K, m1 = 0.2788	1003.88	1530.9	0.874
303.15 K, m1 = 0.4194	1007.84	1541.6	0.91
303.15 K, m1 = 0.56	1011.67	1552.1	0.955
303.15 K, m1 = 0.702	1015.43	1562.4	0.994
303.15 K, m1 = 0.8449	1019.1	1572.4	1.037
303.15 K, m1 = 0.9892	1022.68	1582.3	1.095
303.15 K, m1 = 1.132	1026.12	1591.8	1.156
308.15 K, m1 = 0.1389	998.155	1530.4	0.753
308.15 K, m1 = 0.2788	1002.19	1540.9	0.788
308.15 K, m1 = 0.4194	1006.12	1551.3	0.822
308.15 K, m1 = 0.56	1009.94	1561.4	0.853
308.15 K, m1 = 0.702	1013.68	1571.3	0.894
308.15 K, m1 = 0.8449	1017.35	1581	0.94
308.15 K, m1 = 0.9892	1020.93	1590.6	0.991
308.15 K, m1 = 1.132	1024.37	1599.8	1.041

NCC(=O)O [2-aminoacetic acid] + O
Conditions	mass density [kg/m3]	speed of sound [m/s]	viscosity [mPa·s]
288.15 K, m1 = 0.1393	1003.55	1474.2	1.166
288.15 K, m1 = 0.2791	1007.86	1482	1.185
288.15 K, m1 = 0.4196	1012.03	1489.7	1.205
288.15 K, m1 = 0.56	1016.03	1497.4	1.226
288.15 K, m1 = 0.7019	1019.92	1505	1.248
288.15 K, m1 = 0.8453	1023.68	1512.6	1.27
288.15 K, m1 = 0.9876	1027.24	1520.1	1.295
288.15 K, m1 = 1.132	1030.68	1527.5	1.318
293.15 K, m1 = 0.1393	1002.61	1490.2	1.025
293.15 K, m1 = 0.2791	1006.87	1497.7	1.044
293.15 K, m1 = 0.4196	1010.97	1505.2	1.064
293.15 K, m1 = 0.56	1014.91	1512.5	1.084
293.15 K, m1 = 0.7019	1018.74	1519.8	1.104
293.15 K, m1 = 0.8453	1022.45	1527	1.125
293.15 K, m1 = 0.9876	1025.96	1534	1.146
293.15 K, m1 = 1.132	1029.37	1541	1.166
298.15 K, m1 = 0.1393	1001.4	1504.1	0.912
298.15 K, m1 = 0.2791	1005.6	1511.4	0.929
298.15 K, m1 = 0.4196	1009.68	1518.7	0.946
298.15 K, m1 = 0.56	1013.59	1525.8	0.964
298.15 K, m1 = 0.7019	1017.38	1532.8	0.982
298.15 K, m1 = 0.8453	1021.05	1539.8	0.999
298.15 K, m1 = 0.9876	1024.54	1546.6	1.011
298.15 K, m1 = 1.132	1027.89	1553.3	1.026
303.15 K, m1 = 0.1393	999.949	1516.3	0.82
303.15 K, m1 = 0.2791	1004.11	1523.4	0.839
303.15 K, m1 = 0.4196	1008.15	1530.5	0.853
303.15 K, m1 = 0.56	1012.03	1537.5	0.869
303.15 K, m1 = 0.7019	1015.8	1544.3	0.885
303.15 K, m1 = 0.8453	1019.44	1551.2	0.901
303.15 K, m1 = 0.9876	1022.91	1557.8	0.913
303.15 K, m1 = 1.132	1026.27	1564.5	0.929
308.15 K, m1 = 0.1393	998.286	1526.7	0.734
308.15 K, m1 = 0.2791	1002.41	1533.6	0.752
308.15 K, m1 = 0.4196	1006.42	1540.5	0.772
308.15 K, m1 = 0.56	1010.28	1547.2	0.785
308.15 K, m1 = 0.7019	1014.04	1553.9	0.804
308.15 K, m1 = 0.8453	1017.7	1560.5	0.815
308.15 K, m1 = 0.9876	1021.16	1567	0.825
308.15 K, m1 = 1.132	1024.55	1573.4	0.839
